Laboratory results: patent publication US9204653B2, “5-fluoro pyrimidine derivatives” (DOW AGROSCIENCES LLC, priority 2008, dated 2015)
“And” between values parts separate entries of the source, which are not always exact repeats. Identical values can stand only once. Like-named read-outs stand apart in the source and are kept apart here.

Key:
[1] = system: Venturia inaequalis; Bayer Code VENTIN; experiment: Apple scab; assay type: in vivo; details: 24 h, % disease control rating, one day protectant; for pest or weed control at 25 ppm: read-out: VENTIN 1 DP 25 ppm; for pest or weed control at 75 ppm: read-out: VENTIN 1 DP 75 ppm
[2] = system: Mycosphaerella graminicola; Anamorph: Septoria tritici; Bayer Code SEPTTR; experiment: Leaf blotch of wheat, foliar fungicide treatment, one day protectant (1DP) or three day curative (3DC); assay type: in vivo, Septoria tritici on wheat plants (variety Yuma); details: Zymoseptoria tritici; for pest or weed control at 50 ppm / pest or weed control at 200 ppm: % disease control rating
[3] = system: Mycosphaerella graminicola; Anamorph: Septoria tritici; Bayer Code SEPTTR; experiment: Fungicidal activity as a seed treatment: leaf blotch of wheat; assay type: in vivo, Septoria tritici on wheat variety Yuma; details: for % Control (SEPTTR, seed treatment): 10% SC formulation; for Pot 1 to Pot 8 values (SEPTTR disease severity on treated plants): single pots, 8 replicates
Text: 6. Evaluation of Fungicidal Activity as a Seed Treatment: Leaf Blotch of Wheat (Mycosphaerella graminicola; Anamorph: Septoria tritici; Bayer Code […]) […] Seeds (10 seeds/pot) were planted in 1 inch pot containing 50% mineral soil/50% soil-less Metro mix. 8-day old seedlings were inoculated with an aqueous spore suspension of Septoria tritici, and 8 pots of plants were inoculated for each fungicide rate. After inoculation, plants were kept in 100% relative humidity (one day in a dark dew chamber followed by two days in a lighted mist room) to allow establishment of infection. The plants were then transferred to a greenhouse for disease to develop. When infection levels on untreated plants reached 95 to 100%, disease severities on treated plants were assessed. […] The following tables present the activity of typical compounds of the present disclosure when evaluated in these experiments. The effectiveness of the test compounds in controlling disease was determined by assessing the severity of disease on treated plants, then converting the severity to percent control based on the level of disease on untreated, inoculated plants. In each case of Tables I-V the rating scale is as follows: […]

[4] = system: Cercospora beticola; Bayer Code CERCBE; experiment: Leaf spot of sugar beets; assay type: in vivo, Cercospora beticola on sugar beets (variety HH-88); details: 24 h, % disease control rating, one day protectant; for pest or weed control at 25 ppm: read-out: CERCBE 1 DP 25 ppm; for pest or weed control at 75 ppm: read-out: CERCBE 1 DP 75 ppm
[5] = 24 h, one day protectant, rating of percent disease control, read-out: SETTTR 1DP 25 ppm
[6] = 24 h, one day protectant, rating of percent disease control, read-out: SEPTTR 1DP 100 ppm
[7] = 72 h, three day curative, rating of percent disease control, read-out: SEPTTR 3DC 25 ppm
[8] = 72 h, three day curative, rating of percent disease control, read-out: SEPTTR 3DC 100 ppm
[9] = 24 h, one day protectant (1DP), rating of percent disease control, read-out: SETTTR 1DP 25 ppm
[10] = 24 h, one day protectant (1DP), rating of percent disease control, read-out: SEPTTR 1DP 100 ppm
[11] = 72 h, three day curative (3DC), rating of percent disease control, read-out: SEPTTR 3DC 25 ppm
[12] = 72 h, three day curative (3DC), rating of percent disease control, read-out: SEPTTR 3DC 100 ppm

| SMILES | pest or weed control at 25 ppm [1] | pest or weed control at 75 ppm [1] | pest or weed control at 25 ppm [4] | pest or weed control at 75 ppm [4] | pest or weed control at 25 ppm [2, 5] | pest or weed control at 100 ppm [2, 6] | pest or weed control at 50 ppm ([2]; 24 h, one day protectant) | pest or weed control at 200 ppm ([2]; 24 h, one day protectant) | other results |
| --- | --- | --- | --- | --- | --- | --- | --- | --- | --- |
| Cc1ccc(COc2ncc(F)c(N)n2)cc1 [Compound 15] | 76 to 100% | 76 to 100% | – | – | – | – | – | – | pest or weed control at 25 ppm ([2]; 24 h, one day protectant (1DP), percent disease control rating, read-out: SETTTR 1DP 25 ppm): 76 to 100%; pest or weed control at 100 ppm ([2]; 24 h, one day protectant (1DP), percent disease control rating, read-out: SEPTTR 1DP 100 ppm): 76 to 100%; pest or weed control at 25 ppm ([2]; 72 h, three day curative (3DC), percent disease control rating, read-out: SEPTTR 3DC 25 ppm): 76 to 100%; pest or weed control at 100 ppm ([2]; 72 h, three day curative (3DC), percent disease control rating, read-out: SEPTTR 3DC 100 ppm): 76 to 100%; control of SEPTTR via seed treatment (in words) ([3]; lowest test rate of 1.48 g ai/100 kg seeds): nearly complete control; % Control (SEPTTR, seed treatment) ([3]; rate 1.48 g/100 kg seeds): A (76-100); Pot 1 to Pot 8 values (SEPTTR disease severity on treated plants) ([3]; rate 1.48 g/100 kg seeds): 3% (3×) and 1% (2×) and 0% (3×); % Control (SEPTTR, seed treatment) ([3]; rate 4.44 g/100 kg seeds): A (76-100); Pot 1 to Pot 8 values (SEPTTR disease severity on treated plants) ([3]; rate 4.44 g/100 kg seeds): 0% (5×) and 1% (3×); % Control (SEPTTR, seed treatment) ([3]; rate 13.3 g/100 kg seeds): A (76-100); Pot 1 to Pot 8 values (SEPTTR disease severity on treated plants) ([3]; rate 13.3 g/100 kg seeds): 0% (4×) and 1% (4×); % Control (SEPTTR, seed treatment) ([3]; rate 40 g/100 kg seeds): A (76-100); Pot 1 to Pot 8 values (SEPTTR disease severity on treated plants) ([3]; rate 40 g/100 kg seeds): 0% (5×) and 1% (3×); % Control (SEPTTR, seed treatment) ([3]; rate 120 g/100 kg seeds): A (76-100); Pot 1 to Pot 8 values (SEPTTR disease severity on treated plants) ([3]; rate 120 g/100 kg seeds): 0% |
| CC(C)(c1ccccc1)c1cccc(COc2ncc(F)c(N)n2)c1 [Compound 687] | 26 to 50% | 51 to 75% | 0 to 25% | 0 to 25% | 26 to 50% | 76 to 100% | – | – | pest or weed control at 25 ppm [2, 7]: 0 to 25%; pest or weed control at 100 ppm [2, 8]: 0 to 25% |
| Fc1ccc(COc2ncc(F)c(NCn3c(-c4cscn4)nc4ccccc43)n2)cc1 [Compound 694] | 26 to 50% | 51 to 75% | 26 to 50% | 26 to 50% | 0 to 25% | 26 to 50% | – | – | pest or weed control at 25 ppm [2, 7]: 0 to 25%; pest or weed control at 100 ppm [2, 8]: 26 to 50% |
| Nc1nc(OCc2ccc(Cl)c([N+](=O)[O-])c2)ncc1F [Compound 707] | 51 to 75% | 51 to 75% | 51 to 75% | 26 to 50% | 76 to 100% | 76 to 100% | – | – | pest or weed control at 25 ppm [2, 7]: 76 to 100%; pest or weed control at 100 ppm [2, 8]: 76 to 100% |
| CC(CCOc1ncc(F)c(N)n1)c1ccccc1 (centres unmarked) [Compound 710] | 26 to 50% | 26 to 50% | 0 to 25% | 0 to 25% | 51 to 75% | 76 to 100% | – | – | pest or weed control at 25 ppm [2, 7]: 51 to 75%; pest or weed control at 100 ppm [2, 8]: 76 to 100% |
| Nc1nc(OCCSc2ccc(Cl)cc2)ncc1F [Compound 719] | 51 to 75% | 51 to 75% | 0 to 25% | 26 to 50% | 0 to 25% | 51 to 75% | – | – | – |
| CN(C)/C=N/c1nc(OCc2ccn(C)n2)ncc1F [Compound 730] | 51 to 75% | 51 to 75% | 26 to 50% | 26 to 50% | 76 to 100% | 76 to 100% | – | – | pest or weed control at 25 ppm [2, 7]: 76 to 100%; pest or weed control at 100 ppm [2, 8]: 76 to 100% |
| COc1ccc(COc2ncc(F)c(/N=C3\CCCCN3C)n2)cc1F [Compound 732] | 26 to 50% | 76 to 100% | 26 to 50% | 76 to 100% | 76 to 100% | 76 to 100% | – | – | pest or weed control at 25 ppm [2, 7]: 51 to 75%; pest or weed control at 100 ppm [2, 8]: 76 to 100% |
| CO/N=C\Nc1nc(OCc2ccc(F)cc2)ncc1F [Compound 739] | 26 to 50% | 51 to 75% | 0 to 25% | 0 to 25% | – | – | – | – | pest or weed control at 25 ppm [2, 9]: 76 to 100%; pest or weed control at 100 ppm [2, 10]: 76 to 100%; pest or weed control at 25 ppm [2, 11]: 76 to 100%; pest or weed control at 100 ppm [2, 12]: 76 to 100% |
| COc1cccc(COc2ncc(F)c(NCO)n2)c1 [Compound 741] | 51 to 75% | 76 to 100% | 0 to 25% | 0 to 25% | – | – | – | – | pest or weed control at 25 ppm [2, 9]: 26 to 50%; pest or weed control at 100 ppm [2, 10]: 76 to 100%; pest or weed control at 25 ppm [2, 11]: 76 to 100%; pest or weed control at 100 ppm [2, 12]: 76 to 100% |
| Cn1nc(Oc2ncc(F)c(N)n2)cc1C(F)(F)F [Compound 764] | 26 to 50% | 26 to 50% | 26 to 50% | 0 to 25% | – | – | – | – | pest or weed control at 25 ppm [2, 9]: 0 to 25%; pest or weed control at 100 ppm [2, 10]: 0 to 25%; pest or weed control at 25 ppm [2, 11]: 0 to 25%; pest or weed control at 100 ppm [2, 12]: 0 to 25% |
| Cc1c(COc2ncc(F)c(N)n2)cnn1C [Compound 800] | 76 to 100% | 76 to 100% | 76 to 100% | 76 to 100% | – | – | – | – | pest or weed control at 25 ppm [2, 9]: 76 to 100%; pest or weed control at 100 ppm [2, 10]: 76 to 100%; pest or weed control at 25 ppm [2, 11]: 76 to 100%; pest or weed control at 100 ppm [2, 12]: 76 to 100% |
| Fc1cnc(OCc2cccs2)nc1NCc1ccc2c(c1)OCO2 [Compound 804] | 0 to 25% | 0 to 25% | 0 to 25% | 0 to 25% | – | – | 26 to 50% | 51 to 75% | – |
| Fc1cnc(OCc2cccs2)nc1N1CCOCC1 [Compound 845] | 26 to 50% | 26 to 50% | 0 to 25% | 0 to 25% | – | – | 76 to 100% | 76 to 100% | – |
| Cc1cnc(CNc2nc(OCc3ccco3)ncc2F)cn1 [Compound 849] | 76 to 100% | 51 to 75% | 26 to 50% | 26 to 50% | – | – | 76 to 100% | 76 to 100% | – |
| Fc1cnc(OC2CCCCC2)nc1NCc1ccc(Cl)nc1 [Compound 858] | 26 to 50% | 0 to 25% | 26 to 50% | 26 to 50% | – | – | 0 to 25% | 26 to 50% | – |
| Fc1cnc(OCc2ccc(OC(F)(F)F)cc2)nc1NCc1cccs1 [Compound 860] | 26 to 50% | 51 to 75% | 0 to 25% | 26 to 50% | – | – | – | 76 to 100% | – |
| Fc1ccccc1CNc1nc(OCC(F)(F)F)ncc1F [Compound 894] | 0 to 25% | 26 to 50% | 0 to 25% | 0 to 25% | – | – | 0 to 25% | 0 to 25% | – |
| Nc1nc(OCCn2cncn2)ncc1F [Compound 933] | 0 to 25% | 26 to 50% | 26 to 50% | 26 to 50% | – | – | 26 to 50% | 51 to 75% | – |
| Fc1cnc(OC2CCCCC2)nc1N1CCOCC1 [Compound 941] | 51 to 75% | 26 to 50% | 0 to 25% | 0 to 25% | – | – | 0 to 25% | 0 to 25% | – |
| Fc1cnc(OCc2ccccn2)nc1NC1CC1 [Compound 952] | 0 to 25% | 0 to 25% | 0 to 25% | 0 to 25% | – | – | – | 26 to 50% | – |
